Measured values: ChEMBL document CHEMBL1201862, “PubChem BioAssay data set” (2004)
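Tested at 5 concentrations; 48 h exposure; 96-well plates; endpoints linearly interpolated, else capped at highest concentration. At the GI50, growth is halved.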 Activity calls are given as the source filed them. Rule as the data show it: active = GI50 up to about 1.1 µM and inactive = higher.

Columns and labels:
Assay in all cases: NCI-60 cell line screen, 48 h
MDA-MB-435 = tested on: MDA-MB-435
SK-MEL-5 = tested on: SK-MEL-5
A549 = tested on: A549
NCI-H522 = tested on: NCI-H522
SK-MEL-28 = tested on: SK-MEL-28
NCI-H226 = tested on: NCI-H226
CAKI-1 = tested on: CAKI-1
UO-31 = tested on: UO-31
EKVX = tested on: EKVX
OVCAR-8 = tested on: OVCAR-8
MCF7 = tested on: MCF7
SNB-75 = tested on: SNB-75
HCT-116 = tested on: HCT-116
SF-539 = tested on: SF-539
MOLT-4 = tested on: MOLT-4
HT-29 = tested on: HT-29
Malme-3M = tested on: Malme-3M
NCI-H23 = tested on: NCI-H23
SF-268 = tested on: SF-268
MDA-MB-231 = tested on: MDA-MB-231
HL-60 = tested on: HL-60
M14 = tested on: M14
HCC 2998 = tested on: HCC 2998
PC-3 = tested on: PC-3
UACC-62 = tested on: UACC-62
LOX IMVI = tested on: LOX IMVI
SK-OV-3 = tested on: SK-OV-3
K562 = tested on: K562
SNB-19 = tested on: SNB-19
A498 = tested on: A498
NCI/ADR-RES = tested on: NCI/ADR-RES
786-0 = tested on: 786-0
SR = tested on: SR
HOP-92 = tested on: HOP-92
IGROV-1 = tested on: IGROV-1
BT-549 = tested on: BT-549
SK-MEL-2 = tested on: SK-MEL-2
KM12 = tested on: KM12
SW-620 = tested on: SW-620
COLO 205 = tested on: COLO 205
MDA-N = tested on: MDA-N
DU-145 = tested on: DU-145
OVCAR-4 = tested on: OVCAR-4
UACC-257 = tested on: UACC-257
ACHN = tested on: ACHN
Hs-578T = tested on: Hs-578T
RPMI-8226 = tested on: RPMI-8226
HCT-15 = tested on: HCT-15
OVCAR-5 = tested on: OVCAR-5
OVCAR-3 = tested on: OVCAR-3
TK-10 = tested on: TK-10
CCRF-CEM = tested on: CCRF-CEM
U-251 = tested on: U-251
SN12C = tested on: SN12C
T47D = tested on: T47D
HOP-62 = tested on: HOP-62
NCI-H460 = tested on: NCI-H460
RXF 393 = tested on: RXF 393
SF-295 = tested on: SF-295

For `COC(=O)c1ccc(NCc2cc(OC)ccc2OC)cc1`, the GI50 (MDA-MB-435) was 21.8 µM (inactive), the GI50 (SK-MEL-5) was 31.2 µM (inactive) and the GI50 (A549) was 38.7 µM (inactive). For the same compound, the GI50 (NCI-H522) was 38.4 µM (inactive), the GI50 (SK-MEL-28) was 39.1 µM (inactive) and the GI50 (NCI-H226) was 69.8 µM (inactive). The GI50 (CAKI-1) was 33.7 µM (inactive), the GI50 (UO-31) was 45.6 µM (inactive) and the GI50 (EKVX) was 80 µM (inactive). The GI50 (OVCAR-8) was > 100 µM (inactive), the GI50 (MCF7) was 26.7 µM (inactive) and the GI50 (SNB-75) was 34.2 µM (inactive). For the same compound, the GI50 (HCT-116) was 45 µM (inactive), the GI50 (SF-539) was 68.5 µM (inactive) and the GI50 (MOLT-4) was 33.3 µM (inactive). For the same compound, the GI50 (HT-29) was 28.8 µM (inactive), the GI50 (Malme-3M) was 36.1 µM (inactive) and the GI50 (NCI-H23) was 65 µM (inactive). The GI50 (SF-268) was > 100 µM (inactive), the GI50 (MDA-MB-231) was 46.7 µM (inactive) and the GI50 (HL-60) was 26.3 µM (inactive). The GI50 (M14) was 40.6 µM (inactive), the GI50 (HCC 2998) was 67.6 µM (inactive) and the GI50 (PC-3) was 39 µM (inactive). For the same compound, the GI50 (UACC-62) was 44.8 µM (inactive), the GI50 (LOX IMVI) was 24.3 µM (inactive) and the GI50 (SK-OV-3) was 57 µM (inactive). The GI50 (K562) was 35.6 µM (inactive), the GI50 (SNB-19) was > 100 µM (inactive) and the GI50 (A498) was 26.2 µM (inactive). For the same compound, the GI50 (NCI/ADR-RES) was 30.3 µM (inactive), the GI50 (786-0) was > 100 µM (inactive) and the GI50 (SR) was 38 µM (inactive). The GI50 (HOP-92) was 42.7 µM (inactive), the GI50 (IGROV-1) was > 100 µM (inactive) and the GI50 (BT-549) was 53.8 µM (inactive). For the same compound, the GI50 (SK-MEL-2) was 54.6 µM (inactive), the GI50 (KM12) was 31.1 µM (inactive) and the GI50 (SW-620) was 58.2 µM (inactive). The GI50 (COLO 205) was 35.6 µM (inactive), the GI50 (MDA-N) was 20.8 µM (inactive) and the GI50 (DU-145) was > 100 µM (inactive). The GI50 (OVCAR-4) was > 100 µM (inactive), the GI50 (UACC-257) was 52.1 µM (inactive) and the GI50 (ACHN) was 34.5 µM (inactive). For the same compound, the GI50 (Hs-578T) was 92 µM (inactive), the GI50 (RPMI-8226) was 65.8 µM (inactive) and the GI50 (HCT-15) was 30.6 µM. For the same compound, the GI50 (OVCAR-5) was > 100 µM (inactive), the GI50 (OVCAR-3) was 59.2 µM (inactive) and the GI50 (TK-10) was 24 µM (inactive). The GI50 (CCRF-CEM) was 42.1 µM (inactive) and the GI50 (U-251) was 74.3 µM (inactive).

`NN/C(=N\c1ccc(Cl)cc1)NS(=O)(=O)c1ccc(S(=O)(=O)c2ccccc2)s1` was tested, and the GI50 (SK-MEL-5) was 19.2 µM (inactive), the GI50 (A549) was 20.1 µM (inactive) and the GI50 (SN12C) was 22.6 µM (inactive). The GI50 (T47D) was 8.17 µM (inactive), the GI50 (SK-MEL-28) was 46.7 µM (inactive) and the GI50 (NCI-H226) was 40.6 µM (inactive). The GI50 (CAKI-1) was 27.7 µM (inactive), the GI50 (UO-31) was 23.7 µM (inactive) and the GI50 (EKVX) was 11 µM (inactive). For the same compound, the GI50 (OVCAR-8) was 30.3 µM (inactive), the GI50 (MCF7) was 22.2 µM (inactive) and the GI50 (HOP-62) was 41.2 µM (inactive). The GI50 (HCT-116) was 14.8 µM (inactive), the GI50 (SF-539) was 39.4 µM (inactive) and the GI50 (MOLT-4) was 9.16 µM (inactive). The GI50 (HT-29) was 18.6 µM (inactive), the GI50 (NCI-H23) was 20.4 µM (inactive) and the GI50 (MDA-MB-231) was 33.3 µM (inactive). For the same compound, the GI50 (HL-60) was 24.2 µM (inactive), the GI50 (NCI-H460) was 17.2 µM (inactive) and the GI50 (RXF 393) was 15.5 µM (inactive). The GI50 (M14) was 15.8 µM (inactive), the GI50 (PC-3) was 25.5 µM (inactive) and the GI50 (UACC-62) was 7.21 µM (inactive). The GI50 (LOX IMVI) was 15.3 µM (inactive), the GI50 (SK-OV-3) was 71.9 µM (inactive) and the GI50 (K562) was 10.9 µM (inactive). For the same compound, the GI50 (SNB-19) was 38.3 µM (inactive), the GI50 (A498) was 49.1 µM (inactive) and the GI50 (NCI/ADR-RES) was 18.5 µM (inactive). The GI50 (786-0) was 21.4 µM (inactive), the GI50 (SR) was 16 µM (inactive) and the GI50 (HOP-92) was 18.6 µM (inactive). For the same compound, the GI50 (IGROV-1) was 19 µM (inactive), the GI50 (BT-549) was 26.4 µM (inactive) and the GI50 (SK-MEL-2) was 19.1 µM (inactive). The GI50 (KM12) was 9.79 µM (inactive), the GI50 (SW-620) was 38.6 µM (inactive) and the GI50 (COLO 205) was 17 µM (inactive). The GI50 (MDA-N) was 13.7 µM (inactive), the GI50 (DU-145) was 21.8 µM (inactive) and the GI50 (SF-295) was 8.79 µM (inactive). For the same compound, the GI50 (OVCAR-4) was 21.1 µM (inactive), the GI50 (UACC-257) was 18 µM (inactive) and the GI50 (ACHN) was 16.8 µM (inactive). For the same compound, the GI50 (RPMI-8226) was 21.2 µM (inactive), the GI50 (HCT-15) was 22 µM and the GI50 (OVCAR-5) was 37.6 µM (inactive). The GI50 (OVCAR-3) was 20.6 µM (inactive), the GI50 (TK-10) was 26.7 µM (inactive) and the GI50 (U-251) was 29 µM (inactive).

`COc1cccc2c1OC(c1ccc(C#N)cc1)C([N+](=O)[O-])=C2` (centres undefined) was tested, and the GI50 (MDA-MB-435) was 1.39 µM (inactive), the GI50 (SK-MEL-5) was 1.53 µM (inactive) and the GI50 (A549) was 2.56 µM (inactive). The GI50 (SN12C) was 2.04 µM (inactive), the GI50 (NCI-H522) was 0.214 µM (active) and the GI50 (SK-MEL-28) was 2.28 µM (inactive). For the same compound, the GI50 (NCI-H226) was 2.98 µM (inactive), the GI50 (CAKI-1) was 0.908 µM (active) and the GI50 (UO-31) was 1.64 µM (inactive). The GI50 (EKVX) was 6.24 µM (inactive), the GI50 (OVCAR-8) was 1.25 µM (inactive) and the GI50 (MCF7) was 1.5 µM (inactive). For the same compound, the GI50 (HOP-62) was 3.21 µM (inactive), the GI50 (SNB-75) was 2.47 µM (inactive) and the GI50 (HCT-116) was 1.48 µM (inactive). For the same compound, the GI50 (SF-539) was 1.91 µM (inactive), the GI50 (HT-29) was 1.72 µM (inactive) and the GI50 (Malme-3M) was 1.61 µM (inactive). The GI50 (NCI-H23) was 1.71 µM (inactive), the GI50 (SF-268) was 4.12 µM (inactive) and the GI50 (MDA-MB-231) was 1.56 µM (inactive). The GI50 (HL-60) was 1.41 µM (inactive), the GI50 (NCI-H460) was 2.22 µM (inactive) and the GI50 (RXF 393) was 1.58 µM (inactive). For the same compound, the GI50 (M14) was 1.78 µM (inactive), the GI50 (HCC 2998) was 1.76 µM (inactive) and the GI50 (PC-3) was 1.88 µM (inactive). The GI50 (UACC-62) was 1.6 µM (inactive), the GI50 (LOX IMVI) was 1.91 µM (inactive) and the GI50 (SK-OV-3) was 3.23 µM (inactive). For the same compound, the GI50 (K562) was 1.21 µM (inactive), the GI50 (SNB-19) was 6.46 µM (inactive) and the GI50 (A498) was 1.84 µM (inactive). The GI50 (NCI/ADR-RES) was > 100 µM (inactive), the GI50 (786-0) was 0.482 µM (active) and the GI50 (SR) was 0.778 µM (active). For the same compound, the GI50 (HOP-92) was 1.62 µM (inactive), the GI50 (IGROV-1) was 1.92 µM (inactive) and the GI50 (BT-549) was 1.49 µM (inactive). For the same compound, the GI50 (SK-MEL-2) was 2.01 µM (inactive), the GI50 (SW-620) was 1.42 µM (inactive) and the GI50 (COLO 205) was 1.74 µM (inactive). The GI50 (MDA-N) was 1.52 µM (inactive), the GI50 (DU-145) was 3.12 µM (inactive) and the GI50 (SF-295) was 6.14 µM (inactive). The GI50 (OVCAR-4) was 1.68 µM (inactive), the GI50 (UACC-257) was 1.38 µM (inactive) and the GI50 (ACHN) was 1.77 µM (inactive). For the same compound, the GI50 (Hs-578T) was 1.78 µM (inactive), the GI50 (HCT-15) was 1.7 µM and the GI50 (OVCAR-5) was 1.95 µM (inactive). For the same compound, the GI50 (OVCAR-3) was 2.02 µM (inactive), the GI50 (TK-10) was 3.11 µM (inactive) and the GI50 (CCRF-CEM) was 1.58 µM (inactive). The GI50 (U-251) was 1.86 µM (inactive).
